The values that follow come from US9132126B2, “Phenyl-isoxazole derivatives and preparation process thereof” (priority 2011, dated 2015).

≈ marks a conversion by molar mass, not a printed value. Bounds are passed on as bounds.

Series [1] relates to novel influenza virus (K09). Nature of the series: microbe, parasite or virus in culture. The series is classed as cell-based. The settings on record: for SI value K09: CC50/EC50; for EC50: MDCK, 72 h, read-out: Plaque reduction (Experimental Example 2) EC50.
Series [2] is described as follows: Cytotoxicity assay using MTT. The series is classed as cell-based. The conditions noted are these: dog, MDCK cells infected with influenza virus (K09), MDCK cell infected with K09; compound 24 hours; read-out: MTT assay (Experimental Example 3) CC50. The method, then:
In this experiment, a cell was infected with a virus, and then the virus was directly treated with a compound so as to determine if the virus-infected cell has toxicity. For this, a cell (MDCK) was infected with an influenza virus (K09) for 1 hour, and treated with the compound with different concentrations for 24 hours. Then, the cell was treated with a MTT reagent for 1 hour. After 1 hour, a formazan crystal produced by the MTT reagent was dissolved in DMSO, and the absorbance was measured by an ELISA reader so as to determine CC50.
measured by MTT assay. A maximum concentration of the compound, at which the number of cells is reduced to half or more compared to that of a control group
(Tetrazolium assays rely on reduction of a dye to a coloured formazan, in cell work by metabolically active cells.)

The subject of series [3] is influenza virus (K09) expressing GFP. The series is classed as cell-based. Also on record: key: ◯ = effective; X = ineffective.
Series [4] can be described thus: Acute toxicity test through oral administration in a rat. The settings on record: Sprague-Dawley (SD), in vivo; male SD-Rat, single oral administration, 14 days observation. The format is in vivo. The method, then:
The acute toxicity of the inventive compound was determined through oral administration in a rat. Since the compound is expected to be orally administered in a clinical situation, an oral administration route was selected. A male rat aged 6 weeks (SD-Rat, 220±30 g) was subjected to quarantine, and acclimated for 1 week under a condition of lighting of 12 hours (08:00˜20:00), and luminance of 150-300 Lux at 22±3° C. at a relative humidity of 50±20%, while being freely fed with feed and water. Each of a control group and an experimental group include 8 rats. The control group was orally administered with 0.5% HPMC, and the experimental group was orally administered with a material (different concentrations) suspended in 0.5% HPMC, by using a sonde in an amount in proportion to the measured weight of each individual.
The concentration of the drug administered to the experimental group was set as 2000 mg/kg (the highest concentration for a single dose administration in a non-clinical test), and 1000 mg/kg, and 500 mg/kg (with a common ratio). For 14 days from drug administration, clinical symptoms were observed while the weight change was measured. Test animals that died during the test were subjected to autopsy, and abnormalities of main organs (heart, liver, lung, spleen, kidney, and large intestine) were observed and recorded. On the last day of the test (on the 14th day from the administration), all individuals were subjected to autopsy, and the changes of the organs caused by a test material were observed and compared to those in the control group. In the control group, no rats had died, and abnormalities were not observed through autopsy.
Each group was orally administered in a concentration of 500 mg/kg, 1000 mg/kg, and 2000 mg/kg. For 14 days from the administration, according to the test method, clinical symptoms were observed. […] Also, in the groups administered in various amounts, no individuals died. […] Further, no abnormal responses were observed, and from the autopsy results, no peculiarities were observed.

Consider `Cc1onc(-c2ccc(OC(F)(F)F)cc2)c1C(=O)N1CCN(c2ccc(Cl)c(Cl)c2)CC1` [Example 27, (4-(3,4-dichlorophenyl)piperazine-1-yl)(5-methyl-3-(4-(trifluoromethoxy)phenyl)isoxazol-4-yl)methanone], for which, in series [1], the “SI value K09” value is on record as 2.5 to 8.13 and the EC50 (as a rule, the midpoint of the concentration-response curve) is 2.4 to 3.9 µg/mL (≈ 4.8 to 7.8 µM). Moreover, in series [2], the CC50 (in general, the concentration at which the toxic effect on the cells reaches its halfway point) at 24 h lay within 9.77 to 19.5 µg/mL (≈ 19.5 to 39 µM). Besides, the “GFP reduction (Experimental Example 1) effect” value (“GFP reduction” below) in series [3] was “◯”. Moreover, in series [4], the LD50 – broadly, the dose expected to kill half of the subjects tested – at 14 days was above 2000 mg/kg.

As to `Cc1onc(-c2cccc(C(F)(F)F)c2)c1C(=O)N1CCN(c2ccc(Cl)c(Cl)c2)CC1` [Example 43, (4-(3,4-dichlorophenyl)piperazine-1-yl)(5-methyl-3-(3-(trifluoromethyl)phenyl)isoxazol-4-yl)methanone], the EC50 in series [1] was above 50 µg/mL. Moreover, in series [2], the CC50 at 24 h turned out to be 2500 µg/mL (≈ 5160 µM). Moreover, the “GFP reduction” value in series [3] is “X”.

For the compound `Cc1onc(-c2cccc(OC(F)(F)F)c2)c1C(=O)N1CCN(c2ccc(Cl)c(Cl)c2)CC1` [Example 51, (4-(3,4-dichlorophenyl)piperazine-1-yl)(5-methyl-3-(3-(trifluoromethoxy)phenyl)isoxazol-4-yl)methanone], in series [1], the “SI value K09” value was in the range of 3.91 to 10.80 and the EC50 fell in the range of 2.4 to 3.9 µg/mL (≈ 4.8 to 7.8 µM). For the same compound, the CC50 at 24 h in series [2] was 15.2 to 25.9 µg/mL (≈ 30.5 to 51.8 µM). Besides, the “GFP reduction” value in series [3] is listed as “◯”.

Consider `COc1ccccc1N1CCN(C(=O)c2c(-c3cccc(OC(F)(F)F)c3)noc2C)CC1` [Example 53, (4-(2-methoxyphenyl)piperazine-1-yl)(5-methyl-3-(3-(trifluoromethoxy)phenyl)isoxazol-4-yl)methanone], for which, in series [1], the “SI value K09” value is 160< and the EC50 was 3.12 µg/mL (≈ 6.76 µM). Moreover, the cytotoxic concentration (CC50) at 24 h in series [2] was above 500 µg/mL. In series [3], the “GFP reduction” value is “◯”.

Consider `COc1ccccc1N1CCN(C(=O)c2c(-c3ccccc3Cl)noc2N)CC1` [Example 61, (5-amino-3-(2-chlorophenyl)isoxazol-4-yl)(4-(2-methoxyphenyl)piperazine-1-yl)methanone], for which, in series [1], the “SI value K09” value fell in the range of 159.94 to 319.89 and the EC50 is 0.39 µg/mL (≈ 0.945 µM). In addition, the CC50 at 24 h in series [2] lay in the range of 62.5 to 125 µg/mL (≈ 151 to 303 µM). Moreover, the “GFP reduction” value in series [3] was “◯”. Besides, the LD50 at 14 days in series [4] was above 2000 mg/kg.

Regarding `Nc1onc(-c2cccc(F)c2)c1C(=O)N1CCN(c2ccc(Cl)c(Cl)c2)CC1` [Example 67, (5-amino-3-(3-fluorophenyl)isoxazol-4-yl)(4-(3,4-dichlorophenyl)piperazine-1-yl)methanone], in series [1], the “SI value K09” value is reported as 2.59 to 8.85 and the EC50 was in the range of 2.4 to 3.9 µg/mL (≈ 5.51 to 8.96 µM). Moreover, in series [2], the CC50 at 24 h is 10.1 to 21.2 µg/mL (≈ 23.2 to 48.8 µM). Also, the “GFP reduction” value in series [3] was “◯”.

Regarding `COc1cccc(N2CCN(C(=O)c3c(-c4cccc(F)c4)noc3N)CC2)c1` [Example 68, (5-amino-3-(3-fluorophenyl)isoxazol-4-yl)(4-(3-methoxyphenyl)piperazine-1-yl)methanone], in series [1], the “SI value K09” value is on record as 3.03 to 7.81 and the EC50 is 17.5 to 29 µg/mL (≈ 44.1 to 73.2 µM). The CC50 at 24 h in series [2] was 88.1 to 137 µg/mL (≈ 222 to 345 µM). Further, the “GFP reduction” value in series [3] is “◯”.

`Nc1onc(-c2cccc(F)c2)c1C(=O)N1CCN(c2ccccc2O)CC1` [Example 72, (5-amino-3-(3-fluorophenyl)isoxazol-4-yl)(4-(2-hydroxyphenyl)piperazine-1-yl)methanone]: in series [1], the “SI value K09” value was in the range of 0.31 to 1.25 and the EC50 is 25 to 50 µg/mL (≈ 65.4 to 131 µM). Besides, the CC50 at 24 h in series [2] was 15.6 to 31.2 µg/mL (≈ 40.8 to 81.7 µM). In series [3], the “GFP reduction” value is “◯”.

On to `Nc1onc(-c2ccccc2F)c1C(=O)N1CCN(c2ccc(Cl)c(Cl)c2)CC1` [Example 75, (5-amino-3-(2-fluorophenyl)isoxazol-4-yl)(4-(3,4-dichlorophenyl)piperazine-1-yl)methanone], for which, in series [1], the “SI value K09” value fell in the range of 12.5 to 25.0 and the concentration giving a half-maximal response (EC50) was above 50 µg/mL. Moreover, the cytotoxic concentration (CC50) at 24 h in series [2] lay in the range of 625 to 1250 µg/mL (≈ 1440 to 2870 µM). In addition, in series [3], the “GFP reduction” value was “◯”.

With `Nc1onc(-c2ccccc2C(F)(F)F)c1C(=O)N1CCN(c2ccc(Cl)c(Cl)c2)CC1` [Example 91, (5-amino-3-(2-(trifluoromethyl)phenyl)isoxazol-4-yl)(4-(3,4-dichlorophenyl)piperazine-1-yl)methanone], in series [1], the “SI value K09” value lay in the range of 0.71 to 2.39 and the EC50 lay in the range of 12.4 to 25.8 µg/mL (≈ 25.7 to 53.2 µM). Besides, the CC50 at 24 h in series [2] lay within 18.4 to 29.9 µg/mL (≈ 37.8 to 61.6 µM). Also, the “GFP reduction” value in series [3] was “◯”.

As for `COc1cccc(N2CCN(C(=O)c3c(-c4ccc(OC(F)(F)F)cc4)noc3N)CC2)c1` [Example 100, (5-amino-3-(4-(trifluoromethoxy)phenyl)isoxazol-4-yl)(4-(3-methoxyphenyl)piperazine-1-yl)methanone], in series [1], the “SI value K09” value is listed as 0.49 to 12.57 and the EC50 was 29 to 37 µg/mL (≈ 62.7 to 80 µM). Further, the CC50 at 24 h in series [2] fell in the range of 18.4 to 46.5 µg/mL (≈ 39.9 to 101 µM). In addition, the “GFP reduction” value in series [3] is given as “◯”.

On to `Nc1onc(-c2cccc(C(F)(F)F)c2)c1C(=O)N1CCN(c2ccc(Cl)c(Cl)c2)CC1` [Example 107, (5-amino-3-(3-(trifluoromethyl)phenyl)isoxazol-4-yl)(4-(3,4-dichlorophenyl)piperazine-1-yl)methanone], for which, in series [1], the “SI value K09” value was in the range of 31.34 to 62.68 and the EC50 was 2.72 to 3.9 µg/mL (≈ 5.6 to 8.04 µM). The CC50 at 24 h in series [2] is 122 to 170 µg/mL (≈ 252 to 351 µM). Also, in series [3], the “GFP reduction” value is “◯”. Also, the LD50 at 14 days in series [4] is above 2000 mg/kg.

Regarding `COc1ccccc1N1CCN(C(=O)c2c(-c3cccc(C(F)(F)F)c3)noc2N)CC1` [Example 109, (5-amino-3-(3-(trifluoromethyl)phenyl)isoxazol-4-yl)(4-(2-methoxyphenyl)piperazine-1-yl)methanone], in series [1], the “SI value K09” value is on record as 42.07 to 125.4 and the EC50 is 1.52 to 3.5 µg/mL (≈ 3.4 to 7.84 µM). Also, in series [2], the CC50 at 24 h was 147 to 191 µg/mL (≈ 330 to 427 µM). The “GFP reduction” value in series [3] was “◯”. In series [4], this compound yielded an LD50 at 14 days above 2000 mg/kg.

As to `Nc1onc(-c2cccc(C(F)(F)F)c2)c1C(=O)N1CCN(c2ccccc2O)CC1` [Example 112, (5-amino-3-(3-(trifluoromethyl)phenyl)isoxazol-4-yl)(4-(2-hydroxyphenyl)piperazine-1-yl)methanone], in series [1], the “SI value K09” value is recorded as 0.33 to 1.37 and the EC50 fell in the range of 25 to 50 µg/mL (≈ 57.8 to 116 µM). In addition, in series [2], the cytotoxic concentration (CC50) at 24 h lay within 16.5 to 34.3 µg/mL (≈ 38.2 to 79.3 µM). The “GFP reduction” value in series [3] is listed as “◯”.

As to `Nc1onc(-c2cccc(OC(F)(F)F)c2)c1C(=O)N1CCN(c2ccc(Cl)c(Cl)c2)CC1` [Example 115, (5-amino-3-(3-(trifluoromethoxy)phenyl)isoxazol-4-yl)(4-(3,4-dichlorophenyl)piperazine-1-yl)methanone], in series [1], the “SI value K09” value lay within 0.34 to 1.70 and the EC50 is 21 to 45 µg/mL (≈ 41.9 to 89.8 µM). Also, the CC50 at 24 h in series [2] was 15.5 to 35.8 µg/mL (≈ 30.9 to 71.3 µM). Also, the “GFP reduction” value in series [3] is given as “◯”.

Turning to `COc1cccc(N2CCN(C(=O)c3c(-c4cccc(OC(F)(F)F)c4)noc3N)CC2)c1` [Example 116, (5-amino-3-(3-(trifluoromethoxy)phenyl)isoxazol-4-yl)(4-(3-methoxyphenyl)piperazine-1-yl)methanone], in series [1], the “SI value K09” value lay within 0.42 to 1.70 and the EC50 was in the range of 15 to 32 µg/mL (≈ 32.4 to 69.2 µM). In addition, the CC50 at 24 h in series [2] lay in the range of 13.7 to 25.6 µg/mL (≈ 29.5 to 55.4 µM). For the same compound, in series [3], the “GFP reduction” value was “◯”.

As to `CCOC(=O)C1CCN(C(=O)c2c(-c3ccccc3Cl)noc2N)CC1` [Example 122, ethyl-1-(5-amino-3-(2-chlorophenyl)isoxazol-4-carbonyl)piperidine-4-carboxylate], in series [1], the “SI value K09” value fell in the range of 18.89 to 71.27 and the EC50 lay in the range of 4.5 to 8.5 µg/mL (≈ 11.9 to 22.5 µM). Moreover, the CC50 at 24 h in series [2] fell in the range of 161 to 321 µg/mL (≈ 425 to 849 µM). Besides, the “GFP reduction” value in series [3] was “◯”. The compound further had an LD50 at 14 days in series [4] above 2000 mg/kg.
